From patent publication US20240246932A1 (Merck Sharp & Dohme LLC, priority 2021, published 2024)

What follows are compounds tested against human NaV 1.8 channels stably expressed in HEK 293 cells (Homo sapiens (Human), UniProt Q9Y5Y9) (assay: Nav1.8 Qube automated patch-clamp assay). Settings: human NaV1.8 in HEK 293 cells, whole-cell voltage clamp, room temperature; read-out: IC50 values (nM) for Examples in the Nav1.8 Qube Assay.
Format: cell-based
Outline: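 Whole-cell voltage clamp at room temperature on HEK293 cells; from −90 mV, a 10 s 1 Hz train of 20 ms pulses to 10 mV (repolarising to −67 mV) was applied. Peak currents at pulses 1 and 10 gave resting- and inactivated-state inhibition; IC50 fitted by Hill equation. Internal CsF/CsCl buffer.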

Sequence of human NaV 1.8 channels stably expressed in HEK 293 cells (Q9Y5Y9 whole entry): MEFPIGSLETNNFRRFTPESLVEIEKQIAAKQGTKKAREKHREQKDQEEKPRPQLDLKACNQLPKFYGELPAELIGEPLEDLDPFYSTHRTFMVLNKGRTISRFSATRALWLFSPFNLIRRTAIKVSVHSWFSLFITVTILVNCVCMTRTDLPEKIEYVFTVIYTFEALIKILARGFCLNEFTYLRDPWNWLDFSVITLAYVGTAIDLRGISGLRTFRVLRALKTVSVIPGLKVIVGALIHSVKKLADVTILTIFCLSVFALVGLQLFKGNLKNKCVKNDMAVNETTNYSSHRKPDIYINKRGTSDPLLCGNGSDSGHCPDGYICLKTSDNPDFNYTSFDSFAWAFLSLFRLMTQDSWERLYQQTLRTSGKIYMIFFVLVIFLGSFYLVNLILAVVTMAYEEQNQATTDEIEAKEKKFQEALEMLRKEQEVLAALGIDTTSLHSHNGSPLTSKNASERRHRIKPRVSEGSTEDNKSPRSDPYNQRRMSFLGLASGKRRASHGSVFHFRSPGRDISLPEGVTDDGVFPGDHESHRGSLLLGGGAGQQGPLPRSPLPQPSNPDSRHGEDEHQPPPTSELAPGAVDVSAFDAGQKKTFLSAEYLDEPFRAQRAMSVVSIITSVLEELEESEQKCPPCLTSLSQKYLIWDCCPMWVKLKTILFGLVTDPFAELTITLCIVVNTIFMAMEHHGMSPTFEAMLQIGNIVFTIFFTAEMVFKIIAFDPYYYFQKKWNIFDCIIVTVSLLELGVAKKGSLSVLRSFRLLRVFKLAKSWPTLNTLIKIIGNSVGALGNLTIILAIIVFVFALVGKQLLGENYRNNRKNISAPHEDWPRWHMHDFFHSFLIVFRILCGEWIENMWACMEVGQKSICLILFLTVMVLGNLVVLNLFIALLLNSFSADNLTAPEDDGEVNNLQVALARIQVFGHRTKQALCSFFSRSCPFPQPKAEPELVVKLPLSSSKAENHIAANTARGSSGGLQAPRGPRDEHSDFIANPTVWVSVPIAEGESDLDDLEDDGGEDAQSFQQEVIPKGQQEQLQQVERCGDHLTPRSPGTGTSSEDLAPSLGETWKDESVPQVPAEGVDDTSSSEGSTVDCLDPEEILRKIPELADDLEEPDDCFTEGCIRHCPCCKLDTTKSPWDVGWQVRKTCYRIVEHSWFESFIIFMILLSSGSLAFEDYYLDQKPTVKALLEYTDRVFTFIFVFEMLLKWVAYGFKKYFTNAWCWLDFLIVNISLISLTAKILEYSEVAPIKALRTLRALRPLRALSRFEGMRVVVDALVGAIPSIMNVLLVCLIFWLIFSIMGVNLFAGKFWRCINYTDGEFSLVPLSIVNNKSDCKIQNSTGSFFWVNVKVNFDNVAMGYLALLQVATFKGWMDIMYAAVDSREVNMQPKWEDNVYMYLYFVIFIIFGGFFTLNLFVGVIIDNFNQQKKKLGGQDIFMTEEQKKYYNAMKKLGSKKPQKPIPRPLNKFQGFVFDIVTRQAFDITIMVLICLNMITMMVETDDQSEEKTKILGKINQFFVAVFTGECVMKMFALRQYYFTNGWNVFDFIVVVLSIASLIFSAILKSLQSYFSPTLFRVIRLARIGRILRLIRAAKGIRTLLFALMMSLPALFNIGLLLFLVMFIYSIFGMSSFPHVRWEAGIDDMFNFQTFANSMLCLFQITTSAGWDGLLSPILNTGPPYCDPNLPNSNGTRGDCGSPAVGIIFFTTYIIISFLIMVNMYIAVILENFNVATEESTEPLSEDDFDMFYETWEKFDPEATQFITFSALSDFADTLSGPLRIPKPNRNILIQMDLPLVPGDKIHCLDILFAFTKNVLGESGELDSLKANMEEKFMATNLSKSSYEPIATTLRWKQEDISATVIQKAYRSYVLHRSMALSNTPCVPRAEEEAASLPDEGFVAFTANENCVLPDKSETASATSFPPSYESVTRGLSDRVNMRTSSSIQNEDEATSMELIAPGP

Structure (SMILES) | IC50
O=C1CN(C(=O)NC(c2ccc(Cl)c(F)c2)c2ccc(F)c(C(F)(F)F)n2)CCN1 (single isomer, unassigned) [Example 54A, N-((R or S)-(4-chloro-3-fluorophenyl)(5-fluoro-6-(trifluoromethyl)pyridin-2-yl)methyl)-3-oxopiperazine-1-carboxamide] | 285 nM
O=C1CN(C(=O)NC(c2ccc(Cl)c(F)c2)c2ccc(F)c(C(F)(F)F)n2)CCN1 (single isomer, unassigned) [Example 54B, N-((S or R)-(4-chloro-3-fluorophenyl)(5-fluoro-6-(trifluoromethyl)pyridin-2-yl)methyl)-3-oxopiperazine-1-carboxamide] | 4.14 nM
C[C@@H]1C(=O)NCCN1C(=O)NC(c1ccc(OC(F)(F)F)cc1)c1ccc(F)c(C(F)(F)F)n1 (single isomer, unassigned) [Example 55A, (2R)-N-((R or S)-(5-fluoro-6-(trifluoro-methyl)pyridin-2-yl)(4-(trifluoromethoxy)phenyl)methyl)-2-methyl-3-oxopiperazine-1-carboxamide] | 2.68 nM
C[C@@H]1C(=O)NCCN1C(=O)NC(c1ccc(OC(F)(F)F)cc1)c1ccc(F)c(C(F)(F)F)n1 (single isomer, unassigned) [Example 55B, (2R)-N-((S or R)-(5-fluoro-6-(trifluoro-methyl)pyridin-2-yl)(4-(trifluoromethoxy)phenyl)methyl)-2-methyl-3-oxopiperazine-1-carboxamide] | 15.7 nM
C[C@@H]1C(=O)NCCN1C(=O)NC(c1ccc(OC(F)(F)F)c(F)c1)c1ccc(F)c(C(F)(F)F)n1 (single isomer, unassigned) [Example 56A, (2R)-N-((R or S)-(3-fluoro-4-(trifluoro-methoxy)phenyl)(5-fluoro-6-(trifluoro-methyl)pyridin-2-yl)methyl)-2-methyl-3-oxopiperazine-1-carboxamide] | 11.7 nM
C[C@@H]1C(=O)NCCN1C(=O)NC(c1ccc(OC(F)(F)F)c(F)c1)c1ccc(F)c(C(F)(F)F)n1 (single isomer, unassigned) [Example 56B, (2R)-N-((S or R)-(3-fluoro-4-(trifluoro-methoxy)phenyl)(5-fluoro-6-(trifluoro-methyl)pyridin-2-yl)methyl)-2-methyl-3-oxopiperazine-1-carboxamide] | 1.31 nM
C[C@@H]1C(=O)NCCN1C(=O)NC(c1ccc(OCC(F)(F)F)cc1)c1ccc(F)c(C(F)(F)F)n1 (single isomer, unassigned) [Example 57A, (2R)-N-((R or S)-(5-fluoro-6-(trifluoro-methyl)pyridin-2-yl)(4-(2,2,2-trifluoro-ethoxy)phenyl)methyl)-2-methyl-3-oxopiperazine-1-carboxamide] | 6.79 nM
C[C@@H]1C(=O)NCCN1C(=O)NC(c1ccc(OCC(F)(F)F)cc1)c1ccc(F)c(C(F)(F)F)n1 (single isomer, unassigned) [Example 57B, (2R)-N-((S or R)-(5-fluoro-6-(trifluoro-methyl)pyridin-2-yl)(4-(2,2,2-trifluoro-ethoxy)phenyl)methyl)-2-methyl-3-oxopiperazine-1-carboxamide] | 125 nM
C[C@@H]1C(=O)NCCN1C(=O)NC(c1cccc(OC(F)(F)F)c1)c1ccc(F)c(C(F)(F)F)n1 (single isomer, unassigned) [Example 58A, (2R)-N-((R or S)-(5-fluoro-6-(trifluoro-methyl)pyridin-2-yl)(3-(trifluoromethoxy)phenyl)methyl)-2-methyl-3-oxopiperazine-1-carboxamide] | 3.6 nM
C[C@@H]1C(=O)NCCN1C(=O)NC(c1ccc(OC2CC2)c(F)c1)c1ccc(F)c(C(F)(F)F)n1 (single isomer, unassigned) [Example 59A, (2R)-N-((R or S)-(4-cyclopropoxy-3-fluorophenyl)(5-fluoro-6-(trifluoromethyl)pyridin-2-yl)methyl)-2-methyl-3-oxopiperazine-1-carboxamide] | 3.33 nM
C[C@@H]1C(=O)NCCN1C(=O)NC(c1ccc(OC2CC2)c(F)c1)c1ccc(F)c(C(F)(F)F)n1 (single isomer, unassigned) [Example 59B, (2R)-N-((S or R)-(4-cyclopropoxy-3-fluorophenyl)(5-fluoro-6-(trifluoromethyl)pyridin-2-yl)methyl)-2-methyl-3-oxopiperazine-1-carboxamide] | 31.8 nM
C[C@@H]1C(=O)NCCN1C(=O)NC(c1ccc(F)c(C(F)(F)F)n1)c1ccc(F)c(Cl)c1F (single isomer, unassigned) [Example 60A, (2R)-N-((R or S)-(3-chloro-2,4-difluoro-phenyl)(5-fluoro-6-(trifluoromethyl)pyridin-2-yl)methyl)-2-methyl-3-oxopiperazine-1-carboxamide] | 2.19 nM
C[C@@H]1C(=O)NCCN1C(=O)NC(c1ccc(F)c(C(F)(F)F)n1)c1ccc(F)c(Cl)c1F (single isomer, unassigned) [Example 60B, (2R)-N-((S or R)-(3-chloro-2,4-difluoro-phenyl)(5-fluoro-6-(trifluoromethyl)pyridin-2-yl)methyl)-2-methyl-3-oxopiperazine-1-carboxamide] | 8.29 nM
C[C@@H]1C(=O)NCCN1C(=O)NC(c1ccc(OC(F)(F)F)c(F)c1)c1ccc(C#N)c(C(F)(F)F)n1 (single isomer, unassigned) [Example 61A] | 1.02 nM
C[C@@H]1C(=O)NCCN1C(=O)NC(c1ccc(OC(F)(F)F)c(F)c1)c1ccc(C#N)c(C(F)(F)F)n1 (single isomer, unassigned) [Example 61B] | 3.83 nM
C[C@@H]1C(=O)NCCN1C(=O)NC(c1cnc(C(F)(F)F)s1)c1ccc(F)c(Cl)c1F (single isomer, unassigned) [Example 62A] | 197 nM
C[C@@H]1C(=O)NCCN1C(=O)NC(c1cnc(C(F)(F)F)s1)c1ccc(F)c(Cl)c1F (single isomer, unassigned) [Example 62B] | 2.45 nM
C[C@@H]1C(=O)NCCN1C(=O)NC(c1ccc(OC(F)(F)F)c(Cl)c1)c1cnn(C(F)(F)F)c1 (single isomer, unassigned) [Example 63A, (2R)-N-((R or S)-(3-chloro-4-(trifluoro-methoxy)phenyl)(1-(trifluoromethyl)-1H-pyrazol-4-yl)methyl)-2-methyl-3-oxopiperazine-1-carboxamide] | 1.12 nM
C[C@@H]1C(=O)NCCN1C(=O)NC(c1ccc(OC(F)(F)F)c(Cl)c1)c1cnn(C(F)(F)F)c1 (single isomer, unassigned) [Example 63B, (2R)-N-((S or R)-(3-chloro-4-(trifluoro-methoxy)phenyl)(1-(trifluoromethyl)-1H-pyrazol-4-yl)methyl)-2-methyl-3-oxopiperazine-1-carboxamide] | 13.5 nM
C[C@@H]1C(=O)NCCN1C(=O)NC(c1ccc(OC(F)(F)F)c(Cl)c1)c1coc(C(F)(F)F)n1 (single isomer, unassigned) [Example 64A, (2R)-N-((R or S)-(3-chloro-4-(trifluoro-methoxy)phenyl)(2-(trifluoromethyl)oxazol-4-yl)methyl)-2-methyl-3-oxopiperazine-1-carboxamide] | 4.96 nM
C[C@@H]1C(=O)NCCN1C(=O)NC(c1ccc(OC(F)(F)F)c(Cl)c1)c1coc(C(F)(F)F)n1 (single isomer, unassigned) [Example 64B, (2R)-N-((S or R)-(3-chloro-4-(trifluoro-methoxy)phenyl)(2-(trifluoromethyl)oxazol-4-yl)methyl)-2-methyl-3-oxopiperazine-1-carboxamide] | 3.5 nM
C[C@@H]1C(=O)NCCN1C(=O)NC(c1cnn(-c2ccc(F)cc2)c1)c1ccc(F)c(Cl)c1F (single isomer, unassigned) [Example 65A, (2R)-N-((R or S)-(3-chloro-2,4-difluoro-phenyl)(1-(4-fluoro-phenyl)-1H-pyrazol-4-yl)methyl)-2-methyl-3-oxopiperazine-1-carboxamide] | 8.05 nM
C[C@@H]1C(=O)NCCN1C(=O)NC(c1cnn(-c2ccc(F)cc2)c1)c1ccc(F)c(Cl)c1F (single isomer, unassigned) [Example 65B, (2R)-N-((S or R)-(3-chloro-2,4-difluoro-phenyl)(1-(4-fluoro-phenyl)-1H-pyrazol-4-yl)methyl)-2-methyl-3-oxopiperazine-1-carboxamide] | 89.3 nM
C[C@@H]1C(=O)NCCN1C(=O)NC(c1ccc(F)c(Cl)c1)c1ccn(C(F)F)n1 (single isomer, unassigned) [Example 66A] | 125 nM
C[C@@H]1C(=O)NCCN1C(=O)NC(c1ccc(F)c(Cl)c1)c1ccn(C(F)F)n1 (single isomer, unassigned) [Example 66B] | 82.3 nM
C[C@@H]1C(=O)NCCN1C(=O)NC(c1ccc(F)c(Cl)c1)c1cnn(CC(F)(F)F)c1 (single isomer, unassigned) [Example 67A] | 890 nM
C[C@@H]1C(=O)NCCN1C(=O)NC(c1ccc(F)c(Cl)c1)c1cnn(CC(F)(F)F)c1 (single isomer, unassigned) [Example 67B, (2R)-N-((S or R)-(3-chloro-4-fluorophenyl)(1-(2,2,2-trifluoroethyl)-1H-pyrazol-4-yl)methyl)-2-methyl-3-oxopiperazine-1-carboxamide] | 42 nM
C[C@@H]1C(=O)NCCN1C(=O)NC(c1ccc(Cl)cc1)c1ccnc(C(F)(F)F)n1 (single isomer, unassigned) [Example 68A] | 34.9 nM
C[C@@H]1C(=O)NCCN1C(=O)NC(c1ccc(Cl)cc1)c1ccnc(C(F)(F)F)n1 (single isomer, unassigned) [Example 68B] | 761 nM
C[C@@H]1C(=O)NCCN1C(=O)NC(c1cnc(C(F)(F)F)nc1)c1ccc(F)c(Cl)c1 (single isomer, unassigned) [Example 69A, (2R)-N-((R or S)-(3-chloro-4-fluorophenyl)(2-(trifluoromethyl)pyrimidin-5-yl)methyl)-2-methyl-3-oxopiperazine-1-carboxamide] | 136 nM
